In brackets after ≈: the same amount, converted by molar mass.
Tests used:
[1] = Hepatocyte clearance assay, rat; assay type: in vitro ADME; conditions: cryopreserved primary rat hepatocytes, average value from two experiments, read-out: Rat heps intrinsic clearance (CLint)
How it was run: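 Cryopreserved rat or human hepatocytes at 0.5×10^6 viable cells/mL in L-15 medium, compound incubated at 37° C. with sampling to 120 min, in duplicate; parent remaining by LC/MS/MS. Half-life from ln(% remaining) vs time slope; CLint (μL/min/1×10^6 cells) = kV/N, V 0.2 mL, N 0.1×10^6 cells.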

mPTP = mPTP activity assay in isolated rat liver mitochondria (Ca2+ retention, Fluo5N, FLIPR); assay type: biochemical; conditions: for mPTP Rat liver pIC50*: isolated rat liver mitochondria, average value from multiple experiments (n ≥ 2)
How it was run: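 Freshly isolated female Sprague Dawley rat liver mitochondria in pH 7.4 buffer with 10 mM succinate, 1 μM rotenone and 2 μM Fluo5N, preincubated 10 min at RT with compound (30 μM to 1 nM). CaCl2 bolus (75 μM) added; IC50 from 10 min fluorescence, normalised to DMSO and 5 μM cyclosporin A.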

PBS solubility = assay type: physicochemical; conditions: aqueous buffer, kinetic from dmso stock; PBS pH 7.4, 2 hr at 25° C.
How it was run: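 Compound from 10 mM DMSO stock was added in duplicate to FaSSIF or PBS (pH 7.4) and shaken at 1100 rpm for 2 hr at 25 °C. After filtration, the filtrate was quantified by LC-MS/MS with internal standard against a standard of known concentration.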

Compound | hepatocyte CLint at 1 µM [1] | mPTP Rat liver pIC50* (mPTP) | solubility at 2 h (PBS solubility) | activity in the rat liver mitochondria assay (mPTP; comparison among Example compounds, in words)
O=C(/C=C/c1ccc2cn[nH]c2c1)N[C@@H]1CCc2ccccc21 [Example 3, (R,E)-N-(2,3-dihydro-1H-inden-1-yl)-3-(1H-indazol-6-yl)acrylamide] | 28 µL/min/1e6 cells | 7.2 | 2.2 µM (≈ 0.667 µg/mL) | 
C[C@@H]1COc2ccccc2[C@@H]1NC(=O)/C=C/c1ccc2cn[nH]c2c1 (single isomer, unassigned) [Example 15d, (E)-3-(1H-indazol-6-yl)-N-(3-methylchroman-4-yl)acrylamide] |  | 7.6 | 2 µM (≈ 0.667 µg/mL) | 
C[C@H]1Cc2ccccc2[C@@H]1NC(=O)/C=C/c1ccc2cn[nH]c2c1 (single isomer, unassigned) [Example 14c] | 48 µL/min/1e6 cells | 7.9 | 0.6 µM (≈ 0.19 µg/mL) | highest activity
COCc1ccccc1NC(=O)/C=C/c1ccc2cn[nH]c2c1 [Example 29, (E)-3-(1H-indazol-6-yl)-N-(2-(methoxymethyl)phenyl)acrylamide] | 10 µL/min/1e6 cells | 7.1 | 29 µM (≈ 8.91 µg/mL) | 
